The subject of data set [1] is Staphylococcus epidermidis. In words: Antibacterial activity against methicillin-resistant Staphylococcus epidermidis clinical isolate 15-3 assessed as inhibition of bacterial growth incubated for 18 to 24 hrs by broth microdilution method. The data set is classed as functional. The note with it: time 18-24 hrs. (In general: In broth dilution the organism is exposed to a series of concentrations in liquid medium.)

The nature of data set [2]: Selectivity index, ratio of TC50 for CHOK1 cells to MIC for Staphylococcus aureus ATCC 25923. The data set is classed as toxicity. The note with it: hamster.
In data set [3] the test system is Staphylococcus aureus. In words: Antibacterial activity against methicillin-resistant Staphylococcus aureus clinical isolate 15-2 assessed as inhibition of bacterial growth incubated for 18 to 24 hrs by broth microdilution method. It is filed as functional. The following applies: time 18-24 hrs.
The test system of data set [4] is Staphylococcus epidermidis. In words: Antibacterial activity against methicillin-resistant Staphylococcus epidermidis clinical isolate 15-2 assessed as inhibition of bacterial growth incubated for 18 to 24 hrs by broth microdilution method. The data set is classed as functional. The note with it: time 18-24 hrs.
In data set [5] the test system is Staphylococcus epidermidis. In words: Antibacterial activity against methicillin-sensitive Staphylococcus epidermidis clinical isolate 15-4 assessed as inhibition of bacterial growth incubated for 18 to 24 hrs by broth microdilution method. The data set is classed as functional. The note with it: time 18-24 hrs.
Data set [6] concerns Enterococcus faecalis. In words: Antibacterial activity against Enterococcus faecalis clinical isolate 15-1 assessed as inhibition of bacterial growth incubated for 18 to 24 hrs by broth microdilution method. The data set is classed as functional. The following applies: time 18-24 hrs.
For data set [7], the system named is Staphylococcus aureus. In words: Antibacterial activity against methicillin-resistant Staphylococcus aureus clinical isolate 15-9 assessed as inhibition of bacterial growth incubated for 18 to 24 hrs by broth microdilution method. The data set is classed as functional. The note with it: time 18-24 hrs.
The test system of data set [8] is Enterococcus faecalis. In words: Antibacterial activity against vancomycin-resistant Enterococcus faecalis ATCC 51575 assessed as inhibition of bacterial growth incubated for 18 to 24 hrs by broth microdilution method. It is filed as functional. The note with it: time 18-24 hrs.
The subject of data set [9] is Staphylococcus epidermidis. Description: Antibacterial activity against methicillin-sensitive Staphylococcus epidermidis clinical isolate 15-3 assessed as inhibition of bacterial growth incubated for 18 to 24 hrs by broth microdilution method. The data set is classed as functional. The following applies: time 18-24 hrs.
The subject of data set [10] is Staphylococcus aureus. Description: Antibacterial activity against methicillin-resistant Staphylococcus aureus clinical isolate 15-7 assessed as inhibition of bacterial growth incubated for 18 to 24 hrs by broth microdilution method. The data set is classed as functional. The note with it: time 18-24 hrs.
Data set [11] has as its system Staphylococcus aureus. In words: Antibacterial activity against methicillin-resistant Staphylococcus aureus clinical isolate 15-3 assessed as inhibition of bacterial growth incubated for 18 to 24 hrs by broth microdilution method. The data set is classed as functional. The note with it: time 18-24 hrs.
Data set [12] is described as follows: Inhibition of Staphylococcus aureus Gyrase B using linear pBR322 DNA as substrate incubated for 30 mins in presence of ATP by ADP-Glo assay. For orientation: ADP-Glo first removes unused ATP, then detects ADP through luciferase.
In data set [13] the test system is Enterococcus faecalis. In words: Antibacterial activity against Enterococcus faecalis clinical isolate 15-2 assessed as inhibition of bacterial growth incubated for 18 to 24 hrs by broth microdilution method. The data set is classed as functional. The note with it: time 18-24 hrs.
In data set [14] the test system is Staphylococcus aureus. In words: Antibacterial activity against methicillin resistant and vancomycin-intermediate sensitive Staphylococcus aureus ATCC 700699 assessed as inhibition of bacterial growth incubated for 18 to 24 hrs by broth microdilution method. It is filed as functional. The note with it: time 18-24 hrs.
For data set [15], the system named is Enterococcus faecalis. Description: Antibacterial activity against vancomycin-resistant Enterococcus faecalis ATCC 51299 assessed as inhibition of bacterial growth incubated for 18 to 24 hrs by broth microdilution method. It is filed as functional. The note with it: time 18-24 hrs.
Data set [16] relates to Enterococcus faecium. Description: Antibacterial activity against Enterococcus faecium clinical isolate 15-2 assessed as inhibition of bacterial growth incubated for 18 to 24 hrs by broth microdilution method. The note with it: time 18-24 hrs. The data set is classed as functional.
For data set [17], the system named is Staphylococcus aureus. In words: Antibacterial activity against wild type methicillin-sensitive Staphylococcus aureus ATCC 29213 assessed as inhibition of bacterial growth incubated for 18 to 24 hrs by broth microdilution method. The note with it: time 18-24 hrs. It is filed as functional.
For data set [18], the system named is Enterococcus faecium. In words: Antibacterial activity against Enterococcus faecium clinical isolate 15-1 assessed as inhibition of bacterial growth incubated for 18 to 24 hrs by broth microdilution method. It is filed as functional. The note with it: time 18-24 hrs.
Data set [19] deals with Staphylococcus aureus. Description: Antibacterial activity against methicillin-resistant Staphylococcus aureus clinical isolate 15-8 assessed as inhibition of bacterial growth incubated for 18 to 24 hrs by broth microdilution method. The data set is classed as functional. The note with it: time 18-24 hrs.
Data set [20] concerns Staphylococcus epidermidis. Description: Antibacterial activity against methicillin-resistant Staphylococcus epidermidis clinical isolate 15-1 assessed as inhibition of bacterial growth incubated for 18 to 24 hrs by broth microdilution method. The note with it: time 18-24 hrs. The data set is classed as functional.
Data set [21] concerns Staphylococcus aureus. Description: Antibacterial activity against methicillin-resistant Staphylococcus aureus clinical isolate 15-6 assessed as inhibition of bacterial growth incubated for 18 to 24 hrs by broth microdilution method. The note with it: time 18-24 hrs. The data set is classed as functional.
Data set [22] concerns Enterococcus faecalis. Description: Antibacterial activity against vancomycin-resistant Enterococcus faecalis ATCC 700802 assessed as inhibition of bacterial growth incubated for 18 to 24 hrs by broth microdilution method. It is filed as functional. The note with it: time 18-24 hrs.
Data set [23] deals with Staphylococcus aureus. Description: Antibacterial activity against methicillin-resistant Staphylococcus aureus clinical isolate 15-1 assessed as inhibition of bacterial growth incubated for 18 to 24 hrs by broth microdilution method. The note with it: time 18-24 hrs. The data set is classed as functional.
The test system of data set [24] is Staphylococcus aureus. In words: Antibacterial activity against methicillin resistant and vancomycin-intermediate sensitive Staphylococcus aureus ATCC 700788 assessed as inhibition of bacterial growth incubated for 18 to 24 hrs by broth microdilution method. It is filed as functional. The note with it: time 18-24 hrs.

Values after ≈ are worked out from the molar mass of the structure shown.

Broadly, the MIC is the lowest concentration found to suppress growth. The term IC50 denotes the point on the concentration scale where inhibition reaches its midpoint. Consider `CCc1nnc(NC(=O)c2c(O)c3ccccc3n(C)c2=O)s1`, for which the MIC stood at 4 µg/mL (≈ 12.1 µM) in data set [1]; 4 µg/mL (≈ 12.1 µM) in the data set on Staphylococcus aureus [3]; 4 µg/mL (≈ 12.1 µM) in data set [4]; 2 µg/mL (≈ 6.05 µM) in data set [5]; 4 µg/mL (≈ 12.1 µM) in the data set on Enterococcus faecalis [6]; 4 µg/mL (≈ 12.1 µM) in the data set on Staphylococcus aureus [7]. The MIC in the data set on Enterococcus faecalis [8] stood at 32 µg/mL (≈ 96.9 µM); in data set [9], 4 µg/mL (≈ 12.1 µM); with Staphylococcus aureus [10] it was 4 µg/mL (≈ 12.1 µM); in the data set with Staphylococcus aureus [11] it was 2 µg/mL (≈ 6.05 µM); in the data set with Enterococcus faecalis [13], 4 µg/mL (≈ 12.1 µM); with Staphylococcus aureus [14] it was 4 µg/mL (≈ 12.1 µM). The MIC in the data set with Enterococcus faecalis [15] was 32 µg/mL (≈ 96.9 µM); in the data set with Enterococcus faecium [16], 4 µg/mL (≈ 12.1 µM); in the data set on Staphylococcus aureus [17], 1.56 µg/mL (≈ 4.72 µM); in the data set on Enterococcus faecium [18] it was 4 µg/mL (≈ 12.1 µM); in the data set with Staphylococcus aureus [19], 4 µg/mL (≈ 12.1 µM); in data set [20], 4 µg/mL (≈ 12.1 µM). The MIC in the data set on Staphylococcus aureus [21] stood at 4 µg/mL (≈ 12.1 µM); with Enterococcus faecalis [22], 32 µg/mL (≈ 96.9 µM); with Staphylococcus aureus [23], 2 µg/mL (≈ 6.05 µM); in the data set with Staphylococcus aureus [24] it was 4 µg/mL (≈ 12.1 µM). Further, the selectivity ratio in data set [2] amounted to 20.7. In data set [12], the 50% inhibitory concentration (IC50) came out at 100 nM.
